Test results from PMC5585294, “A potent series targeting the malarial cGMP-dependent protein kinase clears infection and blocks transmission” (Nature Communications, 2017).
Read-outs that look alike come from different tables or passages of the source.

Experiments:
[1] = system: P. falciparum 3D7; assay: Hypoxanthine incorporation growth inhibition assay, asexual blood stage, wild-type 3D7; format: cell-based, Plasmodium falciparum; details: for EC50: read-out: EC50 WT
Protocol: Hypoxanthine incorporation assays[36] were performed on P. falciparum asexual blood stage parasites (wild-type 3D7 or T618Q gatekeeper mutant) to determine EC50 values for test compounds. Mixed staged parasites (primarily rings) were added to 96 well plates containing compounds at concentrations of 50 μM–0.3 nM. […] Assays were carried out in triplicate at least twice.

[2] = system: P. falciparum T618Q gatekeeper mutant line; assay: Hypoxanthine incorporation growth inhibition assay, asexual blood stage, T618Q gatekeeper mutant line; format: cell-based, Plasmodium falciparum; details: for sensitivity of gatekeeper mutant line compared with wild type (control drugs): tested in parallel on both parasite lines; for EC50 / EC90: T618Q clonal line asexual blood stage growth, 72 h, +/- s.e.m.
Protocol: We determined that a 72 h P. falciparum (clone 3D7A; obtained from Lisa Ranford Cartwright, University of Edinburgh) growth inhibition assay was necessary for full inhibition to manifest itself and that this is due, most likely to a schizont-specific action rather than a delayed death phenotype as observed for some antibiotic macrocycles. Hypoxanthine incorporation assays[36] were performed on P. falciparum asexual blood stage parasites (wild-type 3D7 or T618Q gatekeeper mutant) to determine EC50 values for test compounds. Mixed staged parasites (primarily rings) were added to 96 well plates containing compounds at concentrations of 50 μM–0.3 nM. [^3H]-Hypoxanthine was added after 48 h to a final concentration of 0.2 μCi. The radioactivity of the labeled hypoxanthine incorporated into the parasite nucleic acids over 24 h was determined relative to untreated controls using a Wallac 1450 Microbeta scintillation counter (Perkin-Elmer). Assays were carried out in triplicate at least twice.

[3] = Plasma levels in satellite groups of mice, P. berghei experiment; format: in vivo, mouse; details: mice, oral 25 mg/kg, P. berghei experiment
Text: Supplementary Figure 4. Plasma concentrations over time in rodent malaria models. […] Error bars show the standard deviation. (1 picture or pasted object on this page, not shown here)

[4] = system: P. chabaudi (AS); assay: Synchronous P. chabaudi AS model in BALB/c mice; format: in vivo, Plasmodium chabaudi; details: single daily oral dose 50 mg/kg just prior to schizogony, 4 days
Protocol: Similar experiments were performed using P. chabaudi AS (from David Walliker, University of Edinburgh) with the following modifications. To allow dosing to be carried out more conveniently during the day, reversal of the light/dark exposure of mice for 2 weeks prior to the experiment was used to switch schizogony from midnight to noon each day. Mice were dosed at different time points in an attempt to have maximal coverage at the point of schizogony. All animal work protocols carried out at LSHTM were approved and licensed by the United Kingdom Home Office as governed by law under the Animals (Scientific Procedures) Act of 1986, in strict accordance with the Code of Practice Part 1 for the housing and care of animals (21 March 2005), available at http://www.homeoffice.gov.uk/science-research/animal-research/

[5] = system: P. falciparum (NF54) gametocytes; assay: Standard membrane feeding assay (SMFA), gametocytes fed to Anopheles stephensi; format: cell-based, Plasmodium falciparum; details: gametocytes pre-incubated 24 h, oocysts counted day 7 post-feed, read-out: IC50 for reduction of the intensity of infection (oocysts)
Protocol: Mature P. falciparum (NF54) gametocytes (14 day culture, 0.3–0.5% gametocytes, 2% haematocrit) were obtained from an automated tipper system and incubated with compound for 24 h as previously described. Anopheles stephensi (Sind-Kasur Nijmegen strain[39] were reared at 30 °C and 70–80% humidity, while exposed to a 12/12 h day/night cycle. On the day of feeding, the gametocyte culture was adjusted to 50% hematocrit with human red blood cells and human serum and fed to 3–5 day old mosquitoes using a glass membrane mini-feeder system containing 0.35 ml of the P. falciparum culture/compound mix[40]. Unfed and partially fed mosquitoes were removed after feeding and blood fed females were maintained at 26 °C and 70–80% humidity. Up to 20 surviving mosquitoes were collected on day 7 post-infection and oocysts were visualized using a 1% merchurochrome solution and quantified by microscopy. IC50 values were determined by logistic regression using Maximum Likelihood Estimation to find best fit[41].

[6] = system: P. falciparum wild-type (3D7) stage V gametocytes; assay: Gametogenesis (rounding up) assay, wild-type 3D7 stage V gametocytes; format: cell-based, Plasmodium falciparum; details: 30 µM xanthurenic acid; 2 µM ML1, 1 µM ML10
Protocol: Plasmodium falciparum clone 3D7A (obtained from Dr Lisa Ranford-Cartwright, University of Edinburgh) gametocytes were initiated and cultured using an adapted version of the traditional Trager and Jenson method modified by Fivelman and colleagues. Stage V gametocytes were purified on a 60% Percoll gradient. Purified parasite samples were diluted in warm complete media (RPMI-1640 (Sigma), 0.5% Albumax (Invitrogen), 0.03% L-glutamine (Sigma), 0.2% Glucose (Sigma), 1× hypoxanthine (Sigma)), to a volume that would allow a final volume of […] per sample and a haematocrit of <10%. […] Control tubes containing DMSO only were kept at 37 °C. All other samples were incubated at room temperature for 30 min immediately after addition of test compounds. Samples were then washed once in warm RPMI followed by removal of the supernatant to leave a final haematocrit of roughly 50%. Samples were smeared on glass slides and fixed in 100% methanol (VWR) then stained for 15 min in 10% Giemsa R66 (VWR) and observed by light microscopy. The number of gametocytes at stage V and rounded up per 900 erythrocytes were counted three consecutive times to produce an average count. Numbers of parasites rounded up were compared to the no drug control.

[7] = system: P. falciparum gatekeeper mutant (T618Q) stage V gametocytes; assay: Gametogenesis (rounding up) assay, T618Q stage V gametocytes; format: cell-based, Plasmodium falciparum; details: 30 µM xanthurenic acid; 2 µM ML1, 1 µM ML10
[8] = Cytotoxicity assay using HepG2 cells; details: human
Protocol: (§1) Compound mlm hlm mLogD PAMPA HepG2 name (%rem) (%rem) (nm/s) (IC50 µM)
(§2) Supplementary Table 2. Compound Properties. MLM, HLM, mLogD and PAMPA . mlm (%rem): % of compound remaining after 30 minutes’ incubation with mouse liver microsomes; hlm (%rem): % of compound remaining after 40 minutes’ incubation with human liver microsomes; mLogD: measured LogD at pH 7.4; PAMPA: parallel artificial membrane permeability assay; HepG2: Cytotoxicity assay using HepG2 cells; n.t.: not tested.

[9] = Stability in human liver microsomes
Protocol: as §1, §2

[10] = physchem; details: pH 7.4
Protocol: as §1, §2

[11] = target: PfPKG (Plasmodium falciparum, UniProt Q8I719); assay: Microfluidic mobility shift kinase assay, recombinant PfPKG wild type
Chain of PfPKG (Q8I719 whole entry): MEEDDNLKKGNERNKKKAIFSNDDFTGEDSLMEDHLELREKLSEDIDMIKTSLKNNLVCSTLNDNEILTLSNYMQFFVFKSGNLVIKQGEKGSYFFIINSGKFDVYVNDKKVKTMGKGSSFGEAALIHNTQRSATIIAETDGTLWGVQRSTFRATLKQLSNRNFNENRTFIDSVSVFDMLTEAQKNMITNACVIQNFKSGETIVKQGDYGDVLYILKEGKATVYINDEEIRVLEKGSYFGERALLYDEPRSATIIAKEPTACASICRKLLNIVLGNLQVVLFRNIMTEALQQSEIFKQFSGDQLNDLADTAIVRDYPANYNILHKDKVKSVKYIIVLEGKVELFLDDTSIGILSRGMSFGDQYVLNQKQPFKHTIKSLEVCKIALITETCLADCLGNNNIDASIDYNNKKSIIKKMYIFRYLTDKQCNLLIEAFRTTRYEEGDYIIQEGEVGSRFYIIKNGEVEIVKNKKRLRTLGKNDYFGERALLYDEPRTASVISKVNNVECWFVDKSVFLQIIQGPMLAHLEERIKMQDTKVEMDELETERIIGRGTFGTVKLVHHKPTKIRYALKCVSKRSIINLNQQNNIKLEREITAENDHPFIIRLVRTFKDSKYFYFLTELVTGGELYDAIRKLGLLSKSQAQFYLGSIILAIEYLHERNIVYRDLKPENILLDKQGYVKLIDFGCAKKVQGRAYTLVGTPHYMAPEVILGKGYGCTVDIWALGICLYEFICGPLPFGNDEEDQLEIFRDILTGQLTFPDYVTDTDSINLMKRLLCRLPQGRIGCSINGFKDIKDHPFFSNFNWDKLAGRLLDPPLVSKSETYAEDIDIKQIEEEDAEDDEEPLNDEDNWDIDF
Protocol: (§3) Full length PfPKG (NCBI accession code XP_001348520) with native codon usage was cloned into the pTrcHisC plasmid (Life Technologies) that includes an N-terminal His-tag as described previously[8]. […] Recombinant proteins were generated and purified using a protocol based on that described previously[8]. […] 500 ml cultures in LB Rich Broth (containing 50 μg/ml carbenicillin and 34 μg/ml chloramphenicol) were grown in a shaking incubator at 37 °C until reaching an optical density (O.D.) of 0.6–0.7. The temperature was reduced to 16 °C before induction of expression with 1 mM IPTG. Incubation at 16 °C was continued overnight.
(§4) The cultures were harvested by centrifugation at 4000×g at 4 °C for 30 min, the supernatant removed and the pellet stored at −80 °C for in excess of 1 h. The PKGs were purified via the histidine tag on HiTrap TALON (cobalt) columns (GE Healthcare) connected to an AKTA-FPLC as per the manufacturer's instruction. Fractions were analyzed by SDS-PAGE and the main peak concentrated on 10 kDa MWCO concentrators (Amicon). Purified proteins were stored in 50% glycerol at −80 °C in single use aliquots. The final buffer composition of the purified product was: 50 mM Tris/HCl pH 7.5, 0.1 mM EGTA, 150 mM NaCl, 0.1% β-mercaptoethanol, 50% glycerol, 0.03% Brij-35, 1 mM benzamidine and 0.2 mM PMSF.
(§5) IC50 values were determined for test compounds using a microfluidic mobility shift assay. Briefly, compounds were prepared over a 10-well ½ log dilution series in dimethyl sulfoxide (DMSO) in duplicate in 50 μl volumes using 384-well polypropylene U-bottomed plates (Thermo Scientific, UK). The plates contained positive/no inhibitor (DMSO only) and negative (no enzyme) controls in columns 1, 2, and 23, 24. […] Samples were pre-incubated at room temperature for 30 min and reactions were initiated by addition of 25 μl ATP mix (10 mM MgCl2 and ATP, at KM of the enzyme under test [20 µM PfPKG and 90 µM PfPKG T618Q], in water). Positive controls were complete reaction mixtures with 10% DMSO and negative controls were reaction mixtures with 10% DMSO but lacking enzyme. Reactions were allowed to proceed for 30 mins at room temperature, corresponding to conversion of approximately 10% of the substrate in the DMSO controls. Reactions were terminated by addition of 50 µl stop solution (25 mM EDTA in water). Samples were analyzed by electrophoretic separation of substrate and product peaks and fluorescence detection using a Caliper Lab Chip EZ reader. (Perkin Elmer, Waltham MA) with 0.2 s sip time, downstream voltage 500 V, upstream voltage 1950 V and pressure 0.5 to 1.5 psi. Substrate and product peak heights were measured and the ratio of the product peak height divided by the sum of the product and substrate peaks were determined using EZ reader software (version 3.0.265.0) to obtain percentage conversion (P) values. […] Liquid handling stages were conducted on a Biomek robotic liquid handler (Beckman Coulter).

[12] = target: PfPKG T618Q (Plasmodium falciparum, UniProt Q8I719, T618Q); assay: Microfluidic mobility shift kinase assay, recombinant PfPKG T618Q gatekeeper mutant
Chain of PfPKG T618Q (Q8I719 whole entry T618Q): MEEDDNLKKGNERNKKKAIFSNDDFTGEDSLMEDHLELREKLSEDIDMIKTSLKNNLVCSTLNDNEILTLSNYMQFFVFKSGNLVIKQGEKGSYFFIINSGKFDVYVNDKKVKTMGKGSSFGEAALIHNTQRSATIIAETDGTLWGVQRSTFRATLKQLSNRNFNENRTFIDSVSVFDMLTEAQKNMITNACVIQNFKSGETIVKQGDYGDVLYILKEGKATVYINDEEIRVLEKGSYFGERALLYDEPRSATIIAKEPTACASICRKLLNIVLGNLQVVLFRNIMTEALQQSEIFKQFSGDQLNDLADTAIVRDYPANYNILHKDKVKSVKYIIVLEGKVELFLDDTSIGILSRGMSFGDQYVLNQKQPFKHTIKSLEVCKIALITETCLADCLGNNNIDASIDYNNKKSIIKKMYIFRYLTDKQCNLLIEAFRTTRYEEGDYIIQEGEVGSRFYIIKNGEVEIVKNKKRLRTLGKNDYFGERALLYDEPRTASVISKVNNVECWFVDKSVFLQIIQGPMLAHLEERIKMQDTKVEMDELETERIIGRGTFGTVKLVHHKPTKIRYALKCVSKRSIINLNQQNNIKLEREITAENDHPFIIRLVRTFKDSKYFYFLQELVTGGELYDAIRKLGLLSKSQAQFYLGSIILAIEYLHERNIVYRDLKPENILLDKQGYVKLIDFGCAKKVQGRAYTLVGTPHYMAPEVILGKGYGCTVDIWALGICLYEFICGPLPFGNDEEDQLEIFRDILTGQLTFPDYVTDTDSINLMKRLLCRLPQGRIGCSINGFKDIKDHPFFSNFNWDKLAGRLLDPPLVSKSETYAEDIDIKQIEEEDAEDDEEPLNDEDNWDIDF
Protocol: as §3, §4, §5

[13] = Stability in mouse liver microsomes
Protocol: as §1, §2

[14] = Parallel artificial membrane permeability assay (PAMPA); format: in vitro ADME
Text: Compound mlm hlm mLogD PAMPA HepG2
name (%rem) (%rem) (nm/s) (IC50 µM)
Supplementary Table 2. Compound Properties. MLM, HLM, mLogD and PAMPA . mlm

[15] = system: HepG2 cells; assay: Cytotoxicity assay using HepG2 cells
Protocol: as §1, §2

[16] = system: P. falciparum lab isolate Dd2; assay: In vitro selection of resistant parasites; format: cell-based, Plasmodium falciparum; details: 3× EC50, 10^9 parasites, up to Day 60
Protocol: P. falciparum lab isolate Dd2 (from stocks held at LSHTM) was used for this experiment and the control compound used was atovaquone. Parasites were plated in triplicate at 10^9 parasites/well and maintained until parasites were observed microscopically (using Giemsa-stained blood films) or until Day 60 whichever was the soonest. […]. Gametocytes were present initially but were absent from Day 11.

[17] = Plasmodium falciparum, 3D7, 72 h, 3D7 asexual blood stage growth, 72 h, +/- s.e.m.
[18] = Plasmodium falciparum, 3D7, 72 h
[19] = % of compound remaining after 40 minutes' incubation
[20] = 3D7 asexual blood stage growth, 72 h, +/- s.e.m.
[21] = read-out: IC50 WT, recombinant full length 6His-tagged PfPKG, ATP at KM (20 µM), +/- s.e.m.
[22] = read-out: IC50 T618Q, recombinant PfPKG T618Q, ATP at KM (90 µM), +/- s.e.m.

| Compound | mLogD [10] | EC90 [1, 20] | EC50 [1, 20] | EC50 [2] | EC90 [2] | mlm (%rem) ([13]; mouse, microsomes, 0.5 h) | hlm (%rem) ([9]; human, microsomes, 40 min) | PAMPA [14] | IC50 [11, 21] | IC50 [12, 22] | IC50 [15] | other results |
| --- | --- | --- | --- | --- | --- | --- | --- | --- | --- | --- | --- | --- |
| C[C@@H]1CC[C@H]2[C@@H](C)C(=O)O[C@@H]3O[C@@]4(C)CC[C@@H]1[C@]32OO4 [Artemisinin, reference compound] |  |  |  |  |  |  |  |  |  |  |  | EC50 [1, 17]: 25.2 ± 1.5 nM; sensitivity of gatekeeper mutant line compared with wild type (control drugs) [2]: equivalent levels of inhibition of both parasite lines |
| CCN(CC)CCCC(C)Nc1ccnc2cc(Cl)ccc12 (centres unmarked) [Chloroquine, reference compound] |  |  |  |  |  |  |  |  |  |  |  | EC50 [1, 18]: 16.2 ± 1.2 nM; sensitivity of gatekeeper mutant line compared with wild type (control drugs) [2]: equivalent levels of inhibition of both parasite lines |
| CN(C)Cc1ccn2c(-c3ccnc(N)n3)c(-c3ccc(F)cc3)nc2c1 [ML1, 4-[7-[(dimethylamino)methyl]-2-(4-fluorophenyl)imidazo[1,2-a]pyridine-3-yl]pyrimidin-2-amine, reference compound] | 2.4 |  |  |  |  |  |  |  |  |  |  | EC50 [1, 18]: 395 nM; half-life ([3]; BALB/c, mouse, in vivo, read-out: plasma half-life (converted)): 1.1 h; reduction in blood stage parasitaemia [4]: 67.9%; IC50 ([5]; Plasmodium falciparum, NF54): 507 nM; rounding up of wild-type gametocytes [6]: blocked rounding up; rounding up of T618Q gametocytes [7]: insensitive; IC50 [8]: > 20000 nM; hlm (%rem) [9, 19]: 70%; IC50 [11]: 3.1 nM; IC50 [12]: 8440 nM |
| Fc1ccc(-c2nc3ccccn3c2-c2ccnc(Nc3ccc(N4CCNCC4)cc3)n2)cc1 [ML2] | 3.1 | 628 nM | 197 nM | 140 nM | 956 nM | 100% | 100% | 0 ×10⁻⁶ cm/s | 1.71 nM | 1710 nM |  |  |
| CN(C)Cc1ccn2c(-c3ccnc(Nc4ccc(N5CCNCC5)cc4)n3)c(-c3ccc(F)cc3)nc2c1 [ML3] | 2.2 | 236 nM | 63.4 nM | 195 nM | 279 nM |  |  | 6.62 ×10⁻⁶ cm/s | 0.79 nM | 842 nM |  | IC50 ([15]; read-out: HepG2 (IC50 M), cytotoxicity): 1900 nM; mlm (%rem) ([13]; % of compound remaining after 30 minutes' incubation): 89%; hlm (%rem) [9, 19]: 62% |
| Cc1cn2c(-c3ccnc(Nc4ccc(N5CCNCC5)cc4)n3)c(-c3ccc(F)cc3)nc2cc1CN(C)C [ML4] | 2.8 | 107 nM | 25.3 nM | 107 nM | 186 nM | 84% | 31% | 3.71 ×10⁻⁶ cm/s | 0.45 nM | 231 nM | 1900 nM | plasma half-life [3]: 1.0 h; reduction in blood stage parasitaemia [4]: 56.5%; IC50 [5]: 61.6 nM |
| CN(C)Cc1ccn2c(-c3ccnc(N)n3)c(-c3cccc(S(C)(=O)=O)c3)nc2c1 [ML5] | 1.5 | 445 nM | 329 nM | 12700 nM | 61500 nM | 96% | 96% | 1.77 ×10⁻⁶ cm/s | 0.88 nM | > 100000 nM | > 20000 nM |  |
| CN(C)Cc1ccn2c(-c3ccnc(NCC4CC4)n3)c(-c3cccc(S(C)(=O)=O)c3)nc2c1 [ML6] | 2.3 | 142 nM | 102 nM | 1860 nM | 3490 nM | 62% | 72% | 11.45 ×10⁻⁶ cm/s | 0.13 nM | 52500 nM | > 20000 nM |  |
| CN(C)Cc1ccn2c(-c3ccnc(N)n3)c(-c3cccc(NS(C)(=O)=O)c3)nc2c1 [ML7] | 1.6 | 633 nM | 489 nM | 35100 nM | 60700 nM | 96% | 82% | 0.64 ×10⁻⁶ cm/s | 4.34 nM | > 100000 nM | > 20000 nM |  |
| CN(C)Cc1ccn2c(-c3ccnc(N)n3)c(-c3ccc(F)c(NS(C)(=O)=O)c3)nc2c1 [ML8] | 0.8 | 182 nM | 148 nM | 5570 nM | 31000 nM | 97% | 91% | 0.2 ×10⁻⁶ cm/s | 0.79 nM | 73700 nM | > 20000 nM |  |
| Cc1cn2c(-c3ccnc(N)n3)c(-c3ccc(F)c(NS(C)(=O)=O)c3)nc2cc1CN(C)C [ML9] | 1.6 | 158 nM | 105 nM | 6900 nM | 48300 nM | 81% | 86% | 1.08 ×10⁻⁶ cm/s | 1.19 nM | > 100000 nM |  |  |
| CCc1nc(N)nc(N)c1-c1ccc(Cl)cc1 [Pyrimethamine, reference compound] |  |  |  |  |  |  |  |  |  |  |  | EC50 [1, 17]: 43.3 ± 5.9 nM; sensitivity of gatekeeper mutant line compared with wild type (control drugs) [2]: resistant |
| O=C1C(O)=C([C@H]2CC[C@H](c3ccc(Cl)cc3)CC2)C(=O)c2ccccc21 [atovaquone] |  |  |  |  |  |  |  |  |  |  |  | selection of resistant parasites [16]: readily selected |
